Measured values reported in paper PMC6615261, “Repurposing Azithromycin and Rifampicin Against Gram-Negative Pathogens by Combination With Peptidomimetics” (Frontiers in Cellular and Infection Microbiology, 2019).
Read-outs that look alike come from different tables or passages of the source.

Legend:
[1] = system: MDR E. coli ST131; test: Screening of peptidomimetic-antibiotic combinations (growth / growth inhibition); type: cell-based, Escherichia coli; parameters: key to Growth in combination with RIF / Growth in combination with AZM: Growth (+); growth inhibition (–)
Description: (§1) Minimal inhibitory concentrations (MICs) of peptidomimetics, antibiotics and their combinations were determined by broth microdilution according to the Clinical Laboratory Standards Institute performance standards (Clinical and Laboratory Standards Institute, [2013]). […] Since rifampicin and azithromycin mainly are used to treat infections with Gram-positive pathogens only CLSI clinical breakpoints were available for such bacteria. […] Potentiation of additional antibiotics by peptidomimetics was determined by using commercial 96-well plates containing varied concentrations of standard antibiotics (COMPAN1F; Trek Diagnostic Systems Inc.). The peptidomimetics were added immediately prior to inoculation with pathogen, and then MICs were determined as above. The MICs of peptidomimetic/antibiotic combinations were determined according to the method above, and the concentration ratios were selected based upon checkerboard results with 2:1 and 1:4 ratio of peptidomimetic with rifampicin or azithromycin, respectively. Minimal bactericidal concentrations (MBCs) were determined by using growth-curve assay plates. MIC plates were prepared as above, and then the plates were incubated at 37°C with continuous shaking. Growth was recorded at 10 min intervals as optical density (OD) at 600 nm during 24 h. At 24 h, for wells without growth, a sample was diluted 10-fold in sterile saline (0.9% sodium chloride) and plated onto MHA, following CLSI guidelines (Clinical and Laboratory Standards Institute, [1999]).

[2] = MTS/PMS cell viability assay; type: cell-based; conditions: human, HepG2 hepatocytes, 1 h exposure, read-out: Cytotoxicity HepG2 EC50 ± SD
Description: (§2) NIH 3T3 and HepG2 cells (both from ATCC, Manassas, VA, USA) were cultured in flat-bottomed 96-well MicroWell™ plates (NUNC, Roskilde, Denmark) at seeding densities of ~23,000 and ~22,000 cells/well, respectively, and then cultured for 22–24 h under standard culturing conditions (37°C, 5% CO2, humidified air) to reach 80–90% confluence. NIH 3T3 were cultured in Dulbecco's modified Eagle's medium (DMEM) supplemented with 10% (v/v) newborn-calf serum (NCS) (Gibco, Paisly, UK), while HepG2 were cultured in Eagle's minimum essential medium (EMEM) supplemented with 10% (v/v) fetal bovine serum (FBS, Gibco, Paisly, UK), sodium pyruvate (1 mM), and non-essential amino acids (1%, v/v). Both culturing media were further supplemented with penicillin (100 U/mL), streptomycin (100 μg/mL), and L-glutamine (2 mM).
(§3) Effect on cell viability was determined in NIH 3T3 fibroblasts and HepG2 hepatocytes by using the MTS/PMS assay measuring metabolic activity. Briefly, the adhered cells were washed with 37°C Hanks' balanced salt solution (HBSS from Sigma-Aldrich, St. Louis, MO, USA), containing 10 mM HEPES (AppliChem, Darmstadt, Germany), and adjusted to pH 7.4, and were then exposed for 1 h to 100 μL of test compound(s) dissolved in the appropriate culturing medium without serum for each cell line. After exposure the cells were washed with HBSS containing 10 mM HEPES (pH 7.4) and 100 μL of an MTS/PMS solution, consisting of 240 μg/mL MTS (Promega, Madison, WI, USA) and 2.4 μg/mL PMS (SigmaAldrich, Buchs, Switzerland) in HBSS, was added to the cells, which then were incubated for 1 h at 37°C with horizontal shaking under light protection. Absorbance was measured at 492 nm by using a POLARstar OPTIMA plate reader (BMG Labtech, Offenburg, Germany). The relative viability was calculated according to Equation (1) with absorbance values obtained after incubation of cells with test compound; incubation with SDS (0.2%, w/v in medium) defined 100% cell death (Abspos), while the absorbance of cells incubated with medium defined 0% cell death (Absneg).
(§4) (1) Relative viability(%)=(Abssample-Abspos)/(Absneg-Abspos)×100%
(§5) EC50 values were calculated by using GraphPad Prism 7 (GraphPad Software, La Jolla, CA, USA) via fitting of the relative cell viability to the concentration of the test compound by using Equation (2):
(§6) (2) Relative viability(%)= Top-Bottom/1+10^(LogIC50-Log[peptidomimetic]) ×Hill slope
(§7) With top and bottom representing the mean highest and lowest observed values, respectively. The Hill slope represents a factor for the steepness of the linear part of the curve. In order to prevent erroneous calculation, the top and bottom values were constrained to 100 and 0%, respectively. Data were collected from technical triplicates. The selectivity index was calculated as the average effect on cell viability (EC50 values for HepG2 and NIH 3T3 cells) divided by the MIC.

[3] = system: K. pneumoniae ST258; test: MIC by broth microdilution; type: cell-based, Klebsiella pneumoniae
Description: as §1

[4] = system: E. coli ST131; test: MIC by broth microdilution; type: cell-based, Escherichia coli
Description: as §1

[5] = system: NIH 3T3 and HepG2 cells; test: Effect on viability of mammalian cells (both cell lines); type: cell-based, mouse and human
Description: as §2, §3, §4, §5, §6
With top and bottom representing the mean highest and lowest observed values, respectively. The Hill slope represents a factor for the steepness of the linear part of the curve. […] The selectivity index was calculated as the average effect on cell viability (EC50 values for HepG2 and NIH 3T3 cells) divided by the MIC.

[6] = MTS/PMS cell viability assay; type: cell-based, mouse; conditions: mouse, NIH 3T3 fibroblasts, 1 h exposure, read-out: Cytotoxicity NIH 3T3 EC50 ± SD
Description: as §2, §3, §4, §5, §6, §7

[7] = system: K. pneumoniae ST258; test: Screening of peptidomimetic-antibiotic combinations (growth / growth inhibition); type: cell-based, Klebsiella pneumoniae; parameters: key to Growth in combination with RIF / Growth in combination with AZM: Growth (+); growth inhibition (–)
Description: as §1

[8] = system: K. pneumoniae ST258
Description: (§8) The potential synergistic effects in peptidomimetic-antibiotic combinations were assessed by using a two-dimensional checkerboard assay (Garcia, [2010]). Briefly, twofold dilutions of peptide and antibiotic were prepared in MBH II media along the X- and Y-axis, respectively, in 96-well plates. The inoculum was added to the plates, and subsequently these were incubated for 18–20 h. All steps for inoculum preparation and broth microdilution were in accordance with the CLSI guidelines (Clinical and Laboratory Standards Institute, [2013]). The fractional inhibitory concentration index (FICI) was calculated as [MICA(A+B)/MICA(alone)] + [MICB(A+B)/MICB(alone)], where MICA(A+B) represents the MIC of antibiotic (A) in combination with peptidomimetic (B), while MICB(A+B) represents the MIC of peptidomimetic (B) in combination with antibiotic (A). MICA(alone) and MICB(alone) represent the MIC of each compound individually. FICI values of ≤0.5 were interpreted as synergy.

[9] = system: E. coli ST131
Description: as §8

[10] = system: P. aeruginosa ATCC 27853
Description: as §8

[11] = system: P. aeruginosa ATCC 27853; test: MIC by broth microdilution; type: cell-based, Pseudomonas aeruginosa
Description: as §1

[12] = system: K. pneumoniae ST258; test: Potentiation of additional antibiotics (COMPAN1F plates), MIC; type: cell-based, Klebsiella pneumoniae; conditions: for MIC of antibiotic in presence of peptidomimetic 1: + 1 μM peptidomimetic 1; for MIC of antibiotic in presence of peptidomimetic 15: + 1 μM peptidomimetic 15; for MIC of antibiotic in presence of peptidomimetic 26: + 1 μM peptidomimetic 26; for MIC: Klebsiella pneumoniae, read-out: MIC of antibiotic alone; for MIC / MIC of antibiotic alone: no peptidomimetic
Description: as §1

[13] = system: E. coli ST131; test: as above; type: cell-based, Escherichia coli; conditions: for MIC of antibiotic in presence of peptidomimetic 26: + 0.25 μM peptidomimetic 26; for MIC of antibiotic in presence of peptidomimetic 1: + 0.5 μM peptidomimetic 1; for MIC of antibiotic in presence of peptidomimetic 15: + 0.5 μM peptidomimetic 15; for MIC: Escherichia coli, read-out: MIC of antibiotic alone
Description: as §1

[14] = 0.5 μM peptidomimetic + 0.5 μg/mL rifampicin
[15] = peptidomimetic 0.5 μM + azithromycin 1 μg/mL
[16] = peptidomimetic 0.5 μM + rifampicin 0.5 μg/mL
[17] = average of EC50 (HepG2, NIH 3T3) divided by MIC
[18] = MIC of azithromycin combined with the labelled peptidomimetic
[19] = MIC of rifampicin combined with the labelled peptidomimetic

## C[C@@H](c1ccccc1)N(CCC(N)=O)C(=O)[C@H](CCCCNC(=N)N)NC(=O)CCN(C(=O)[C@H](CCCCN)NC(=O)CCN(C(=O)[C@H](CCCCNC(=N)N)NC(=O)CCN(C(=O)[C@H](CCCCN)NC(=O)CCN(C(=O)[C@H](CCCCNC(=N)N)NC(=O)CCN(C(=O)[C@H](CCCCN)NC(=O)CNCCCNCCCCNCCCN)[C@@H](C)c1ccccc1)[C@@H](C)c1ccccc1)[C@@H](C)c1ccccc1)[C@@H](C)c1ccccc1)[C@@H](C)c1ccccc1 [Peptidomimetic 26, Spermine-(Lys-βNspe-hArg-βNspe)3-NH2]
[1]; [14]
  Screening result with rifampicin: inhibit growth
[1]; [15]
  Growth in combination with AZM: –
[1]; [16]
  Growth in combination with RIF: –
[2]
  EC50 at 1 h: 59.6 ± 0.71 µM
[3]; [17]
  Selectivity Index (SI) K. pneumoniae ST258: (7)
[3]; peptidomimetic alone
  MIC K. pneumoniae ST258: 8 µM
[4]; [17]
  Selectivity Index (SI) E. coli ST131: (56)
[4]; peptidomimetic alone
  MIC E. coli ST131: 1 µM
[5]
  EC50: 50 to 60 µM
[6]
  EC50 at 1 h: 53.2 ± 2.94 µM
[7]; [14]
  Screening result with rifampicin: inhibit growth
[7]; [15]
  Growth in combination with AZM: +
[7]; [16]
  Growth in combination with RIF: –
[8]; MIC of CLI combined with the labelled peptidomimetic
  Antibiotic MIC in combination (CLI): 4 µg/mL
[8]; [18]
  Antibiotic MIC in combination (AZM): 8 µg/mL
[8]; [19]
  Antibiotic MIC in combination (RIF): 0.06 µg/mL
[8]; checkerboard
  Peptidomimetic MIC alone: 8 µM
[8]; combined with AZM
  Peptidomimetic MIC in combination: 0.5 µM
[8]; combined with CLI
  Peptidomimetic MIC in combination: 0.5 µM
[8]; combined with RIF
  Peptidomimetic MIC in combination: 0.5 µM
[9]; [18]
  Antibiotic MIC in combination (AZM): 1 µg/mL
[9]; [19]
  Antibiotic MIC in combination (RIF): 0.5 µg/mL
[9]; checkerboard
  Peptidomimetic MIC alone: 1 µM
[9]; combined with AZM
  Peptidomimetic MIC in combination: 0.25 µM
[9]; combined with RIF
  Peptidomimetic MIC in combination: 0.25 µM
[10]; P. aeruginosa ATCC 27853, MIC of azithromycin combined with the labelled peptidomimetic
  Antibiotic MIC in combination (AZM): 0.5 µg/mL
[10]; P. aeruginosa ATCC 27853, MIC of rifampicin combined with the labelled peptidomimetic
  Antibiotic MIC in combination (RIF): 0.06 µg/mL
[10]; P. aeruginosa ATCC 27853, checkerboard
  Peptidomimetic MIC alone: 2 µM
[10]; P. aeruginosa ATCC 27853, combined with AZM
  Peptidomimetic MIC in combination: 1 µM
[10]; P. aeruginosa ATCC 27853, combined with RIF
  Peptidomimetic MIC in combination: 0.5 µM
[10]; P. aeruginosa, sub-MIC concentrations of peptidomimetic
  Reduction of the MIC of azithromycin: 32- to 512 fold
[11]; [17]
  Selectivity Index (SI) P. aeruginosa ATCC 27853: (28)
[11]; peptidomimetic alone
  MIC P. aeruginosa ATCC 27853: 2 µM

## CCC[C@@H]1C[C@@H](C(=O)N[C@@H]([C@H]2O[C@H](SC)[C@H](O)[C@@H](O)[C@H]2O)[C@H](C)Cl)N(C)C1 [Clindamycin]
[12]
  MIC of antibiotic in presence of peptidomimetic 1: >4 µg/mL
  MIC of antibiotic in presence of peptidomimetic 15: >4 µg/mL
  MIC of antibiotic in presence of peptidomimetic 26: 2 µg/mL
  MIC: > 4 µg/mL
  MIC of antibiotic alone: >4 µg/mL
[8]; checkerboard
  Antibiotic MIC alone: 125 µg/mL
[13]
  MIC of antibiotic in presence of peptidomimetic 26: >4 µg/mL
  MIC of antibiotic in presence of peptidomimetic 1: 4 µg/mL
  MIC of antibiotic in presence of peptidomimetic 15: >4 µg/mL
[13]; no peptidomimetic
  MIC: > 4 µg/mL

## Cc1onc(-c2ccccc2)c1C(=O)N[C@@H]1C(=O)N2[C@@H]1SC(C)(C)[C@@H]2C(=O)O [Oxacillin]
[12]
  MIC of antibiotic in presence of peptidomimetic 1: >4 µg/mL
  MIC of antibiotic in presence of peptidomimetic 15: >4 µg/mL
  MIC of antibiotic in presence of peptidomimetic 26: >4 µg/mL
  MIC: > 4 µg/mL
[13]
  MIC of antibiotic in presence of peptidomimetic 26: >4 µg/mL
  MIC of antibiotic in presence of peptidomimetic 1: >4 µg/mL
  MIC of antibiotic in presence of peptidomimetic 15: >4 µg/mL
[13]; no peptidomimetic
  MIC: > 4 µg/mL

## CCN1CCN(c2cc3c(cc2F)c(=O)c(C(=O)O)cn3C2CC2)CC1 [Enrofloxacin]
[12]
  MIC of antibiotic in presence of peptidomimetic 1: >2 µg/mL
  MIC of antibiotic in presence of peptidomimetic 15: >2 µg/mL
  MIC of antibiotic in presence of peptidomimetic 26: >2 µg/mL
  MIC: > 2 µg/mL
[13]
  MIC of antibiotic in presence of peptidomimetic 26: >2 µg/mL
  MIC of antibiotic in presence of peptidomimetic 1: >2 µg/mL
  MIC of antibiotic in presence of peptidomimetic 15: >2 µg/mL
[13]; no peptidomimetic
  MIC: > 2 µg/mL

## Trimethoprim/sulfamethoxazole
[12]
  MIC of antibiotic in presence of peptidomimetic 1: >38 µg/mL
  MIC of antibiotic in presence of peptidomimetic 15: >38 µg/mL
  MIC of antibiotic in presence of peptidomimetic 26: >38 µg/mL
  MIC of antibiotic alone: >38 µg/mL
[13]
  MIC of antibiotic in presence of peptidomimetic 26: >38 µg/mL
  MIC of antibiotic in presence of peptidomimetic 1: >38 µg/mL
  MIC of antibiotic in presence of peptidomimetic 15: >38 µg/mL
[13]; no peptidomimetic
  MIC of antibiotic alone: >38 µg/mL
